The assay deals with broiler chickens with combined chronic mycotoxicosis (aflatoxin B1, ochratoxin A, T-2-mycotoxin, fumonisin B1 in feed). The arrangement: species or system broiler chickens of the Cobb-Avian-48 cross. Conditions: in vivo.

On to `OC[C@H]1O[C@@H](O[C@@H]2[C@@H](CO)OC(O)(CO)[C@H]2O)[C@H](O)[C@@H](O)[C@H]1O` (mixture of isomers) [lactulose], for which the “recovery of average daily weight gain per kilogram of component in the compound feed” value was determined as 25%.
